Results published in patent US12186283B2, “Bismuth-thiol compositions and methods of use” (Microbion Corporation, priority 2018, dated 2025).
Read-outs that look alike come from different tables or passages of the source. Marks after values point to notes of the source that are not given here.

How the values were obtained:
Type in all cases: cell-based
Candida krusei = assay: Broth microdilution MIC, yeast (Example 13)
Aspergillus spp. = assay: Broth microdilution MIC/MEC, mold (Example 13); conditions: for MIC0 (complete inhibition): comparators, read time not given
Candida auris = assay: Broth microdilution MIC, yeast (Example 13)
Candida albicans = assay: Broth microdilution MIC, yeast (Example 13)
Candida glabrata = assay: Broth microdilution MIC, yeast (Example 13)
[1] = C. krusei ATCC 14243, Susceptible
[2] = C. krusei ATCC 96685, Susceptible
[3] = C. krusei MMX 7125, Susceptible
[4] = C. krusei MMX 7128, Susceptible
[5] = C. krusei MMX 7141, Susceptible
[6] = C. krusei MMX 7155, Susceptible
[7] = C. krusei MMX 7563, Susceptible
[8] = C. krusei MMX 9878, MICA-I, VORI-I
[9] = C. auris MMX 9863, FLU-R, VORI-R
[10] = C. auris MMX 9864, FLU-R, VORI-R
[11] = C. auris MMX 9865, FLU-R, VORI-R
[12] = C. auris MMX 9866, FLU-R, VORI-R
[13] = C. auris MMX 9867, FLU-R, VORI-R
[14] = C. auris MMX 9868, FLU-R, VORI-R
[15] = C. auris MMX 9869, FLU-R, VORI-R
[16] = C. auris MMX 9870, FLU-R, VORI-R
[17] = Candida albicans ATCC 90028, Susceptible, 24 hr
[18] = Candida albicans ATCC 204276, MICA-R, 24 hr
[19] = Candida albicans ATCC MYA-2732, FLU-R, VORI-I, 24 hr
[20] = Candida albicans MMX 7053, Susceptible, 24 hr
[21] = Candida albicans MMX 7067, FLU-R, VORI-R, 24 hr
[22] = Candida albicans MMX 7403, Susceptible, 24 hr
[23] = Candida albicans MMX 7424, CASP-R, MICA-R, 24 hr
[24] = Candida albicans MMX 7430, Susceptible, 24 hr
[25] = Candida albicans MMX 7437, FLU-I, 24 hr
[26] = Candida glabrata ATCC 90030, Susceptible
[27] = Candida glabrata ATCC MYA-2950, Susceptible
[28] = Candida glabrata MMX 7087, Susceptible
[29] = Candida glabrata MMX 7093, FLU-R
[30] = Candida glabrata MMX 7101, FLU-R
[31] = Candida glabrata MMX 7103, CASP-R, MICA-R
[32] = Candida glabrata MMX 7111, Susceptible
[33] = Candida glabrata MMX 7285, CASP-R, MICA-R
[34] = Candida glabrata MMX 7307, CASP-R, MICA-R, FLU-R
[35] = Candida glabrata MMX 7549, Susceptible

C[C@@H]1[C@H](O)[C@@H](C)/C=C/C=C/C=C/C=C/C=C/C=C/C=C/[C@H](O[C@@H]2O[C@H](C)[C@@H](O)[C@H](N)[C@@H]2O)C[C@@H]2O[C@](O)(C[C@@H](O)C[C@@H](O)[C@H](O)CC[C@@H](O)C[C@@H](O)CC(=O)O[C@H]1C)C[C@H](O)[C@H]2C(=O)O [AMP B]
0.5 µg/mL: MIC0 (complete inhibition) (Candida krusei; C. krusei ATCC 6258, MICA-I) | MIC0 (complete inhibition) (Candida krusei; [2]) | MIC0 (complete inhibition) (Candida krusei; [3]) | MIC0 (complete inhibition) (Candida krusei; [4]) | MIC0 (complete inhibition) (Candida krusei; C. krusei MMX 7153, MICA-R) | MIC0 (complete inhibition) (Candida krusei; [7]) | MIC0 (complete inhibition) (Candida krusei; [8]) | MIC0 (complete inhibition) (Candida auris; [12]) | MIC0 (complete inhibition) (Candida auris; [13])
1 µg/mL: MIC0 (complete inhibition) (Aspergillus spp.; A. flavus ATCC 22546) | MIC0 (complete inhibition) (Aspergillus spp.; A. flavus ATCC 204304) | MIC0 (complete inhibition) (Aspergillus spp.; A. flavus MMX 7935) | MIC0 (complete inhibition) (Aspergillus spp.; A. fumigatus ATCC 204305) | MIC0 (complete inhibition) (Aspergillus spp.; A. fumigatus ATCC MYA-3626) | MIC0 (complete inhibition) (Aspergillus spp.; A. fumigatus MMX 5934) | MIC0 (complete inhibition) (Aspergillus spp.; A. fumigatus MMX 5938) | MIC0 (complete inhibition) (Aspergillus spp.; A. fumigatus MMX 5939) | MIC0 (complete inhibition) (Candida auris; [15]) | MIC0 (complete inhibition) (Candida auris; [16]) | MIC0 (complete inhibition) (Candida auris; C. auris MMX 9871, Susceptible)
0.12 µg/mL: MIC0 (complete inhibition) (Candida auris; [9]) | MIC0 (complete inhibition) (Candida albicans; [20]) | MIC0 (complete inhibition) (Candida albicans; Candida albicans MMX 7445, FLU-R, VORI-R, 24 hr) | MIC0 (complete inhibition) (Candida glabrata; [27]) | MIC0 (complete inhibition) (Candida glabrata; [28])
0.25 µg/mL: MIC0 (complete inhibition) (Candida krusei; [1]) | MIC0 (complete inhibition) (Candida krusei; [5]) | MIC0 (complete inhibition) (Candida krusei; [6]) | MIC0 (complete inhibition) (Aspergillus spp.; A. niger ATCC 29508) | MIC0 (complete inhibition) (Aspergillus spp.; A. terreus MMX 8229) | MIC0 (complete inhibition) (Candida auris; C. auris MMX 9862, Susceptible) | MIC0 (complete inhibition) (Candida auris; [10]) | MIC0 (complete inhibition) (Candida auris; [11]) | MIC0 (complete inhibition) (Candida auris; [14]) | MIC0 (complete inhibition) (Candida albicans; [17]) | MIC0 (complete inhibition) (Candida albicans; [18]) | MIC0 (complete inhibition) (Candida albicans; [19]) | MIC0 (complete inhibition) (Candida albicans; [21]) | MIC0 (complete inhibition) (Candida albicans; [22]) | MIC0 (complete inhibition) (Candida albicans; [23]) | MIC0 (complete inhibition) (Candida albicans; [24]) | MIC0 (complete inhibition) (Candida albicans; [25]) | MIC0 (complete inhibition) (Candida glabrata; [26]) | MIC0 (complete inhibition) (Candida glabrata; [29]) | MIC0 (complete inhibition) (Candida glabrata; [30]) | MIC0 (complete inhibition) (Candida glabrata; [31]) | MIC0 (complete inhibition) (Candida glabrata; [32]) | MIC0 (complete inhibition) (Candida glabrata; [33]) | MIC0 (complete inhibition) (Candida glabrata; [34]) | MIC0 (complete inhibition) (Candida glabrata; [35])

CC[C@H](C)C[C@H](C)CCCCCCCCC(=O)N[C@H]1C[C@@H](O)[C@@H](NCCN)NC(=O)[C@@H]2[C@@H](O)CCN2C(=O)[C@H]([C@H](O)CCN)NC(=O)[C@H]([C@H](O)[C@@H](O)c2ccc(O)cc2)NC(=O)[C@@H]2C[C@@H](O)CN2C(=O)[C@H]([C@@H](C)O)NC1=O [CASP]
0.25^b μg/mL: MIC2 (50% inhibition) (Candida auris; [10]) | MIC2 (50% inhibition) (Candida auris; [11]) | MIC2 (50% inhibition) (Candida auris; C. auris MMX 9871, Susceptible)
8 µg/mL: MIC2 (50% inhibition) (Candida albicans; [23])
0.06^a μg/mL: MIC2 (50% inhibition) (Candida albicans; Candida albicans MMX 7445, FLU-R, VORI-R, result after 48 hr incubation (insufficient growth at 24 hr))
>8 µg/mL: MIC2 (50% inhibition) (Candida glabrata; [31]) | MIC2 (50% inhibition) (Candida glabrata; [34])
0.06^b μg/mL: MEC (minimum effective concentration) (Aspergillus spp.; A. niger ATCC 29508, 48 hr only, insufficient growth for 24 hr read)
0.25 µg/mL: MIC2 (50% inhibition) (Candida krusei; C. krusei ATCC 6258, MICA-I) | MIC2 (50% inhibition) (Candida krusei; [3]) | MIC2 (50% inhibition) (Candida krusei; [4]) | MIC2 (50% inhibition) (Candida krusei; [5]) | MIC2 (50% inhibition) (Candida krusei; C. krusei MMX 7153, MICA-R) | MIC2 (50% inhibition) (Candida krusei; [6]) | MIC2 (50% inhibition) (Candida krusei; [8]) | MEC (minimum effective concentration) (Aspergillus spp.; A. fumigatus ATCC 204305) | MIC2 (50% inhibition) (Candida auris; [14]) | MIC2 (50% inhibition) (Candida auris; [15]) | MIC2 (50% inhibition) (Candida auris; [16]) | MIC2 (50% inhibition) (Candida albicans; [18])
0.06 µg/mL: MEC (minimum effective concentration) (Aspergillus spp.; A. flavus ATCC 22546) | MEC (minimum effective concentration) (Aspergillus spp.; A. flavus ATCC 204304) | MEC (minimum effective concentration) (Aspergillus spp.; A. fumigatus ATCC MYA-3626) | MIC2 (50% inhibition) (Candida albicans; [17]) | MIC2 (50% inhibition) (Candida albicans; [19]) | MIC2 (50% inhibition) (Candida albicans; [20]) | MIC2 (50% inhibition) (Candida albicans; [21]) | MIC2 (50% inhibition) (Candida albicans; [22]) | MIC2 (50% inhibition) (Candida albicans; [24]) | MIC2 (50% inhibition) (Candida albicans; [25]) | MIC2 (50% inhibition) (Candida glabrata; [35])
0.12 µg/mL: MIC2 (50% inhibition) (Candida krusei; [2]) | MIC2 (50% inhibition) (Candida krusei; [7]) | MEC (minimum effective concentration) (Aspergillus spp.; A. fumigatus MMX 5934) | MEC (minimum effective concentration) (Aspergillus spp.; A. fumigatus MMX 5939) | MIC2 (50% inhibition) (Candida auris; C. auris MMX 9862, Susceptible) | MIC2 (50% inhibition) (Candida auris; [13]) | MIC2 (50% inhibition) (Candida glabrata; [26]) | MIC2 (50% inhibition) (Candida glabrata; [27]) | MIC2 (50% inhibition) (Candida glabrata; [28]) | MIC2 (50% inhibition) (Candida glabrata; [29]) | MIC2 (50% inhibition) (Candida glabrata; [30]) | MIC2 (50% inhibition) (Candida glabrata; [32])
0.12^b μg/mL: MEC (minimum effective concentration) (Aspergillus spp.; A. fumigatus MMX 5938, 48 hr only, insufficient growth for 24 hr read) | MEC (minimum effective concentration) (Aspergillus spp.; A. terreus MMX 8229, 48 hr only, insufficient growth for 24 hr read) | MIC2 (50% inhibition) (Candida auris; [9]) | MIC2 (50% inhibition) (Candida auris; [12])
0.5 µg/mL: MIC2 (50% inhibition) (Candida glabrata; [33])
0.03 µg/mL: MEC (minimum effective concentration) (Aspergillus spp.; A. flavus MMX 7935)
0.012 µg/mL: MIC2 (50% inhibition) (Candida krusei; [1])

OC(Cn1cncn1)(Cn1cncn1)c1ccc(F)cc1F [FLU]
8 µg/mL: MIC2 (50% inhibition) (Candida glabrata; [26]) | MIC2 (50% inhibition) (Candida glabrata; [27])
0.25 µg/mL: MIC2 (50% inhibition) (Candida albicans; [17])
>64 µg/mL: MIC2 (Aspergillus spp.; A. flavus ATCC 22546) | MIC2 (Aspergillus spp.; A. flavus ATCC 204304) | MIC2 (Aspergillus spp.; A. flavus MMX 7935) | MIC2 (Aspergillus spp.; A. fumigatus ATCC 204305) | MIC2 (Aspergillus spp.; A. fumigatus ATCC MYA-3626) | MIC2 (Aspergillus spp.; A. fumigatus MMX 5934) | MIC2 (Aspergillus spp.; A. fumigatus MMX 5938) | MIC2 (Aspergillus spp.; A. fumigatus MMX 5939) | MIC2 (Aspergillus spp.; A. niger ATCC 29508) | MIC2 (Aspergillus spp.; A. terreus MMX 8229) | MIC2 (50% inhibition) (Candida auris) | MIC2 (50% inhibition) (Candida auris; C. auris MMX 9871, Susceptible)
16 µg/mL: MIC2 (50% inhibition) (Candida krusei; C. krusei ATCC 6258, MICA-I) | MIC2 (50% inhibition) (Candida krusei; [1]) | MIC2 (50% inhibition) (Candida krusei; [4]) | MIC2 (50% inhibition) (Candida krusei; [5])
1 µg/mL: MIC2 (50% inhibition) (Candida albicans; [22]) | MIC2 (50% inhibition) (Candida glabrata; [28])
2 µg/mL: MIC2 (50% inhibition) (Candida auris; C. auris MMX 9862, Susceptible) | MIC2 (50% inhibition) (Candida glabrata; [32])
0.12 µg/mL: MIC2 (50% inhibition) (Candida albicans; [20])
0.5 µg/mL: MIC2 (50% inhibition) (Candida albicans; [24])
4 µg/mL: MIC2 (50% inhibition) (Candida albicans; [25]) | MIC2 (50% inhibition) (Candida glabrata; [35])
64 µg/mL: MIC2 (50% inhibition) (Candida krusei; [8])
32 µg/mL: MIC2 (50% inhibition) (Candida krusei) | MIC2 (50% inhibition) (Candida krusei; [2]) | MIC2 (50% inhibition) (Candida krusei; [3]) | MIC2 (50% inhibition) (Candida krusei; [6]) | MIC2 (50% inhibition) (Candida krusei; [7])
